Measured values as given in US20090136460A1 (VANDERBILT UNIVERSITY, priority 2007, published 2009).
Like-named read-outs stand apart in the source and are kept apart here. Each block holds one compound with its values, some of them ahead of it.

Assays:
HMVEC-c cells = test: cAMP accumulation in HMVEC-c cells; type: cell-based, human
Source text: Primary cultures of human cardiac microvascular endothelial cells (HMVEC-c) were obtained from Cambrex (Walkersville, Md.), and cultured using EGM™-2 MV growth medium (Cambrex). HMVEC-c from passages 2 to 5 were used. Measurement of cAMP accumulation.

A1 adenosine receptor [1] = target: T1, A1 adenosine receptor (Mus musculus, UniProt Q60612); details: cited from earlier work; for Ki: read-out: Affinity or potency at A1, mouse (m)
T1 sequence (Q60612 1-326): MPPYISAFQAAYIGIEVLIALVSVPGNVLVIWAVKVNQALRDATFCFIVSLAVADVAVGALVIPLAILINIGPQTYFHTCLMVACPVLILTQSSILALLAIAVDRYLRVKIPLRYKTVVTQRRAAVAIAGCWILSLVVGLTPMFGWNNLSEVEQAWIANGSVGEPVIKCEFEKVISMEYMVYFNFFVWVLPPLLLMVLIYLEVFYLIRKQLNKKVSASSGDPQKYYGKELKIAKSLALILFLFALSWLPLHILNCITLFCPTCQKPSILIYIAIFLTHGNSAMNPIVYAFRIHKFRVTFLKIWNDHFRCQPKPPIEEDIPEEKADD

[2] = system: eEPC adhesion to MCEC-1 cells; test: eEPC adhesion to MCEC-1 cells under static conditions; type: cell-based, mouse
[3] = system: eEPC retention in isolated hearts; test: eEPC retention in isolated mouse hearts (Langendorff perfusion)
Experimental: Isolated mouse heart model. Six male C57Bl/6 mice (Jackson Laboratory, Bar Harbor, Me.) at age of 6-8 weeks were used. The study was conducted in accordance with the Guide for the Care and Use of Laboratory Animals as adopted and promulgated by the U.S. National Institutes of Health. Hearts were rapidly removed from mice anesthetized with inhalation of isoflurane. The aorta was cannulated and connected to a Langendorff apparatus. […] After a 30 min stabilization period, hearts were perfused with 1.5 mmol/L FITC-conjugated Helix pomatia lectin (Sigma) for 10 min to label endothelial cells of perfused vessels followed by a 10 min washing period with KH buffer. […] After washing with KH buffer for 10 min to remove unbound eEPCs, hearts were dissected, and placed on a microscopic stage. Retention of eEPCs in hearts was analyzed by taking 10 random images of the left ventricle using epifluorescence microscopy (20× objective). Area of EPC-emitted fluorescence was measured using NIH ImageJ software and normalized to the area of vascular endothelium stained with FITC-lectin.

A1 receptors [4] = target: T2, A1 receptors (Mus musculus, UniProt Q60612); test: Inhibition of forskolin-induced cAMP accumulation in MCEC-1 cells
T2 sequence (Q60612 1-326): T1 sequence (Q60612 1-326)

A1 receptors [5] = target: T2, A1 receptors; test: Inhibition of forskolin-stimulated cAMP accumulation in mouse eEPCs; details: for Affinity or potency at A1, mouse (m), current study, log / Affinity or potency (Ki, KD, KB, IC50 or EC50) at A1, mouse (m), current study: data from the current study (no reference); for Affinity or potency (Ki, KD, KB, IC50 or EC50) at A1, mouse (m), current study: 95% CI in parentheses
A2A adenosine receptor [6] = target: A2A adenosine receptor (Mus musculus, UniProt Q60613); details: [9] Kreckler et al. (2006), transfected HEK 293, radioligand [125I]ZM241385, cited from earlier work
Sequence of A2A adenosine receptor (Mus musculus, UniProt Q60613) (Q60613 whole entry): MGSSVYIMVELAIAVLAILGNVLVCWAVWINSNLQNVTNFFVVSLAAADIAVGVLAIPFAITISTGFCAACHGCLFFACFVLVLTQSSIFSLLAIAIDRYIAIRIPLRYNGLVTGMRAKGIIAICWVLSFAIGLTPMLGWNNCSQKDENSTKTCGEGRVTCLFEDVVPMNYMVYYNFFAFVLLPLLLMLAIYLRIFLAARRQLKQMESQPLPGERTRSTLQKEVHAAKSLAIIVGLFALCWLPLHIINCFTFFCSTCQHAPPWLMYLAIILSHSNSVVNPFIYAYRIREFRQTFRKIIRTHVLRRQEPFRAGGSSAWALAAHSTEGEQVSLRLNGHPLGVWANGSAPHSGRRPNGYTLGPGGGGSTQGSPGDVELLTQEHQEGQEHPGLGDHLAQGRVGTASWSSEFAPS

A2B adenosine receptor [7] = target: T3, A2B adenosine receptor (Mus musculus, UniProt Q60614); details: [9] Kreckler et al. (2006), transfected HEK 293, radioligand [3H]MRS1754, cited from earlier work
T3 sequence (Q60614 1-332): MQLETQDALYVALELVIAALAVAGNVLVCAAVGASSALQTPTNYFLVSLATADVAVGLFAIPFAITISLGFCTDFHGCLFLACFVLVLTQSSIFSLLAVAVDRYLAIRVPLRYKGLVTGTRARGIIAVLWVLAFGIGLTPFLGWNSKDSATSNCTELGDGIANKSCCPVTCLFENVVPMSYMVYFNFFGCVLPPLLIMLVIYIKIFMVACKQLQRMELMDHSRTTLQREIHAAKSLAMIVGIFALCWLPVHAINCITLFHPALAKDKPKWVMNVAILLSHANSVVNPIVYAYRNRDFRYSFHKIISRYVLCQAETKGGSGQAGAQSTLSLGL

eEPCs = test: cAMP accumulation in mouse eEPCs (forskolin, NECA)
A2B adenosine receptor [8] = target: T4, A2B adenosine receptor (Homo sapiens, UniProt P29275); details: [14] Feoktistov et al, 2001, transfected HEK 293 or HEL cells, radioligand [3H]ZM241685, cited from earlier work
T4 sequence (P29275 1-332): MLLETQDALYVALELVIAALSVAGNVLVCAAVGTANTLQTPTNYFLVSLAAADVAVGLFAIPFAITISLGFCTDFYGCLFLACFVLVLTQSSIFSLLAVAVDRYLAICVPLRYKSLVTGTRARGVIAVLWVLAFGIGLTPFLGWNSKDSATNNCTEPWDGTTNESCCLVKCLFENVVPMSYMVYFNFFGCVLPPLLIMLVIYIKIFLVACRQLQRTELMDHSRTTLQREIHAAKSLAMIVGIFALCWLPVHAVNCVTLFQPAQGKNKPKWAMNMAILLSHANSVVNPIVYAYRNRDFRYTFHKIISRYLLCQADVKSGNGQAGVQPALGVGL

A2A adenosine receptor [9] = target: A2A adenosine receptor (Homo sapiens, UniProt P29274); details: [14] Feoktistov et al, 2001, transfected CHO cells, radioligand [3H]NECA, cited from earlier work
Sequence of A2A adenosine receptor (Homo sapiens, UniProt P29274) (P29274 whole entry): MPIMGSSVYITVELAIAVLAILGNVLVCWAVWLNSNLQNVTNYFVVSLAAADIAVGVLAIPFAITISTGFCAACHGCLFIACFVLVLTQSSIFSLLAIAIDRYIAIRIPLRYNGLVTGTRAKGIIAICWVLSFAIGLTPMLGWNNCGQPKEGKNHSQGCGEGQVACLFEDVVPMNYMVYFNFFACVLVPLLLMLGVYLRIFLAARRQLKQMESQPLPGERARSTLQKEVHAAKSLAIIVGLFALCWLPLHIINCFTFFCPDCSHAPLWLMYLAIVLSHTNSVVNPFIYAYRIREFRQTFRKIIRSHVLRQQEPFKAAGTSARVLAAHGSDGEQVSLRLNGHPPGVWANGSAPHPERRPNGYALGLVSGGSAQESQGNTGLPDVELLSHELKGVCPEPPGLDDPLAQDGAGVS

A2B receptors = target: T5, A2B receptors (Mus musculus, UniProt Q60614); test: NECA-stimulated cAMP accumulation in MCEC-1 cells
T5 sequence (Q60614 1-332): T3 sequence (Q60614 1-332)

A1 adenosine receptor [10] = target: T6, A1 adenosine receptor (Homo sapiens, UniProt P30542); details: [14] Feoktistov et al, 2001, transfected CHO cells, radioligand [3H]DPCPX, cited from earlier work
T6 sequence (P30542 1-326): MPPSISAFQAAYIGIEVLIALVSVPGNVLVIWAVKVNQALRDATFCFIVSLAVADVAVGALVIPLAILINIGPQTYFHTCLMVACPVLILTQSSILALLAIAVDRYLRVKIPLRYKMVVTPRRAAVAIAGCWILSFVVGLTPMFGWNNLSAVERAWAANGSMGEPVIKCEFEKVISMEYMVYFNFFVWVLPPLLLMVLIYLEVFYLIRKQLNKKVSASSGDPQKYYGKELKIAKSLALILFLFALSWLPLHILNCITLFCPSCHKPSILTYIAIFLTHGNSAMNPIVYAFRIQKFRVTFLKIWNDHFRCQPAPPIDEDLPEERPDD

[11] = [6] Maemoto et al. (1997), brain cortex, radioligand [3H]DPCPX
[12] = [9] Kreckler et al. (2006), transfected HEK 293, radioligand [125I]I-AB-MECA

Compound: CCNC(=O)[C@H]1O[C@@H](n2cnc3c(N)nc(NCCc4ccc(CCC(=O)O)cc4)nc32)[C@H](O)[C@@H]1O [CGS21680, 4-((N-ethyl-5′-carbamoyladenos-2-yl)-aminoethyl)-phenyl-propionic acid]
Effect on cAMP accumulation in HMVEC-c (HMVEC-c cells): no significant effect | Affinity or potency at A1, mouse (m), log (A1 adenosine receptor [1]; [11]): 28,200); −4.85 [6] log mol/L | Effect on eEPC adhesion ([2]; 30 minutes): virtually no effect | Effect on eEPC retention ([3]; 3 nmol/L, compared with 10 μmol/L adenosine): considerably less effect

Concentrations at which inhibition was reversed (A1 receptors [4]; MCEC-1, presumably stimulation of A2B receptors): > 100 nmol/L | EC50 (A1 receptors [5]): 1.3 nM | Affinity or potency at A1, mouse (m), current study, log (A1 receptors [5]): −8.9 log mol/L | Affinity or potency (Ki, KD, KB, IC50 or EC50) at A1, mouse (m), current study (A1 receptors [5]): 1.2 (0.6-2.4) nmol/L
Compound: OC[C@H]1O[C@@H](n2cnc3c(NC4CCCC4)ncnc32)[C@H](O)[C@@H]1O [CPA, N^6-cyclopentyladenosine]
Effect on forskolin-stimulated adenylate cyclase in MCEC-1 (A1 receptors [4]; selective (low nanomolar) concentrations, 1 μmol/L forskolin): inhibited forskolin-stimulated adenylate cyclase | Affinity or potency at A1, mouse (m), log (A1 adenosine receptor [1]; [11]): −8.5 log mol/L | Ki (A1 adenosine receptor [1]; [11]): 3.3 nM | eEPC adhesion ([2]; 10 nmol/L, 30 minutes, basal 4.5±0.3%): 7.4±0.6%

Compound: CCCn1c(=O)c2[nH]c(C3CCCC3)nc2n(CCC)c1=O [DPCPX, 8-cyclopentyl-1,3-dipropylxanthine]
Affinity or potency at A1, mouse (m), log (A1 adenosine receptor [1]; [11]): −9.3 log mol/L | Affinity or potency at A1, mouse (m), log (A1 adenosine receptor [1]; [12]): −8.8 log mol/L | Ki (A1 adenosine receptor [1]; [11]): 0.4 nM | Ki (A1 adenosine receptor [1]; [12]): 1.5 nM | EC50 (A1 receptors [5]): 1.5 nM | Affinity or potency at A1, mouse (m), current study, log (A1 receptors [5]): −8.8 log mol/L | Affinity or potency at A2A, mouse (m), log (A2A adenosine receptor [6]): −6.2 log mol/L | Ki (A2A adenosine receptor [6]; read-out: Affinity or potency at A2A, mouse (m)): 598 nM | Affinity or potency at A2B, mouse (m), log (A2B adenosine receptor [7]): −7.1 log mol/L | Ki (A2B adenosine receptor [7]; read-out: Affinity or potency at A2B, mouse (m)): 86 nM

EC50 (eEPCs; Mus musculus, read-out: EC50, increase of cAMP levels in eEPCs): 1100 nM
Compound: C=C[C@@]1(C)CC(=O)[C@]2(O)[C@@]3(C)[C@@H](O)CCC(C)(C)[C@@H]3[C@H](O)[C@H](OC(C)=O)[C@@]2(C)O1 [Forskolin, forskolin]
cAMP levels in eEPCs (eEPCs; maximal increase from basal 4.3±0.7): 35±2 pmol per well

Affinity or potency at A1, mouse (m), current study, log (A1 receptors [5]): 24,870); −4.6 log mol/L | Affinity or potency (Ki, KD, KB, IC50 or EC50) at A1, mouse (m), current study (A1 receptors [5]): m 20,000 (16,230- nmol/L | IC50 ([2]; Mus musculus, read-out: IC50, inhibition of NECA-induced eEPC adhesion): 1600 nM | Kd (A2B receptors): 603 nM | Schild analysis slope (A2B receptors; NECA-induced cAMP accumulation in MCEC-1, simple competitive antagonism at A2B): 1.1 | Affinity or potency at A2B, mouse (m), current study, log (A2B receptors; data from the current study (no reference)): −6.2 log mol/L | Affinity or potency (Ki, KD, KB, IC50 or EC50) at A2B, mouse (m), current study (A2B receptors; data from the current study (no reference), 95% CI in parentheses): 603 nM
Compound: CC(C)Cn1c(=O)[nH]c(=O)c2[nH]c(N3CCCC3)nc21 [IPDX, 3-isobutyl-8-pyrrolidinoxanthine]
Affinity or potency at A2B, human (h), log (A2B adenosine receptor [8]): −6.2 log mol/L | Ki (A2B adenosine receptor [8]; read-out: Affinity or potency at A2B, human (h)): 625 nM | Affinity or potency at A2A, human (h), log (A2A adenosine receptor [9]): −4.4 log mol/L | Ki (A2A adenosine receptor [9]; read-out: Affinity or potency at A2A, human (h)): 36000 nM | Affinity or potency at A1, human (h), log (A1 adenosine receptor [10]): −4.6 log mol/L | Ki (A1 adenosine receptor [10]; read-out: Affinity or potency at A1, human (h)): 24000 nM

Compound: OC[C@H]1O[C@@H](n2cnc3c(O)ncnc32)[C@H](O)[C@@H]1O [inosine]
Effect on eEPC retention ([3]; 100 μmol/L): no effect

Compound: Fucoidan
Effect on NECA-dependent stimulation of eEPC adhesion ([2]; 10 μmol/L NECA): inhibited

Compound: Pertussis toxin
Effect on ability of CPA to inhibit forskolin-stimulated adenylate cyclase (A1 receptors [5]; eEPCs preincubated with pertussis toxin for 12 hours): completely abrogated | Effect on TNF-α-induced eEPC adhesion ([2]; eEPCs preincubated with pertussis toxin 12 hours): no effect | Effect on stimulation of adhesion induced by NECA ([2]; eEPCs preincubated with pertussis toxin 12 hours, 10 μmol/L NECA): significantly attenuated but did not completely block
